According to patent publication US11655268B2, “Nucleoside or nucleotide derivatives, and uses thereof” (ST Pharm Co., Ltd., priority 2018, dated 2023):
Where a name gives a salt, the structure may show the parent alone.

What was measured:
[1] = Cytotoxicity (CC50) in Vero cells; conditions: African green monkey, CC50 (DENV), Vero cells, DENV test
[2] = test system: DENV; test: Reduction in viral infection, dengue virus in Vero cells, immunofluorescence (4G2 antibody); type: cell-based, Dengue virus New Guinea C (NGC); conditions: 72 h, read-out: EC50 DENV
[3] = in vitro; conditions: human
[4] = test system: MERS-CoV; test: microbe, parasite or virus in culture; type: cell-based, MERS virus (MERS-CoV/KOR/KNIH/002_05_2015); conditions: Middle East respiratory syndrome-related coronavirus, Huh-7, 72 h, read-out: EC50 MERS-CoV
[5] = test system: Influenza virus B/Lee/40; test: Cytopathic effect reduction, influenza B Lee in MDCK cells, MTT; type: cell-based; conditions: for Selectivity index FluB Lee: CC50/EC50; for EC50: MDCK, 72 h, read-out: Anti-Flu activity EC50 FluB Lee
[6] = in vitro; conditions: dog
[7] = test system: hCoV (229E); test: microbe, parasite or virus in culture; type: cell-based, Human coronavirus hCoV 229E; conditions: MRC5, 72 h; MRC-5 cells, day 3 after infection; read-out: EC50 hCoV (229E)
[8] = in vitro; conditions: human; remark: listed apart in the source

## O=C(Nc1ccn(C2O[C@H](CO)[C@@H](O)[C@H]2F)c(=O)n1)c1cccnc1 (stereo in doubt) [Example 26, N-(1-((2S,3R,4R,5R)-3-fluoro-4-hydroxy-5-(hydroxymethyl)tetrahydrofuran-2-yl)-2-oxo-1,2-dihydropyrimidin-4-yl)nicotinamide]
[1]
  CC50 at 3 days: > 100 µM
[2]
  EC50: 57.7 µM

## Cc1ccc(C(=O)Nc2ccn(C3O[C@H](CO)[C@@H](O)[C@H]3F)c(=O)n2)cn1 (stereo in doubt) [Example 32, N-(1-((2S,3R,4R,5R)-3-fluoro-4-hydroxy-5-(hydroxymethyl)tetrahydrofuran-2-yl)-2-oxo-1,2-dihydropyrimidin-4-yl)-6-methylnicotinamide]
[3]
  CC50 at 3 days: > 100 µM
[4]
  EC50: > 100 µM

## Cc1cncc(C(=O)Nc2ccn(C3O[C@H](CO)[C@@H](O)[C@H]3F)c(=O)n2)n1 (stereo in doubt) [Example 34, N-(1-((2S,3R,4R,5R)-3-fluoro-4-hydroxy-5-(hydroxymethyl)tetrahydrofuran-2-yl)-2-oxo-1,2-dihydropyrimidin-4-yl)-6-methylpyrazine-2-carboxamide]
[3]
  CC50 at 3 days: > 100 µM
[5]
  Selectivity index FluB Lee: >9.0
  EC50: 11.1 µM
[4]
  EC50: > 100 µM
[6]
  CC50 at 3 days: > 100 µM

## O=C(Nc1ccn(C2O[C@H](CO)[C@@H](O)[C@H]2F)c(=O)n1)c1ccc(F)cn1 (stereo in doubt) [Example 35, 5-Fluoro-N-(1-((2S,3R,4R,5R)-3-fluoro-4-hydroxy-5-(hydroxymethyl)tetrahydrofuran-2-yl)-2-oxo-1,2-dihydropyrimidin-4-yl)picolinamide]
[3]
  CC50 at 3 days: > 100 µM
[5]
  Selectivity index FluB Lee: >2.7
  EC50: 37.4 µM
[4]
  EC50: > 100 µM
[6]
  CC50 at 3 days: > 100 µM

## O=C(Nc1ccn(C2O[C@H](CO)[C@@H](O)[C@H]2F)c(=O)n1)c1ccc(C(F)(F)F)nc1 (stereo in doubt) [Example 41, N-(1-((2S,3R,4R,5R)-3-fluoro-4-hydroxy-5-(hydroxymethyl)tetrahydrofuran-2-yl)-2-oxo-1,2-dihydropyrimidin-4-yl)-6-(trifluoromethyl)nicotinamide]
[5]
  Selectivity index FluB Lee: >5.3
  EC50: 18.9 µM
[6]
  CC50 at 3 days: > 100 µM

## O=C(Nc1ccn(C2O[C@H](CO)[C@@H](O)[C@H]2F)c(=O)n1)c1ccc(F)nc1 (stereo in doubt) [Example 42, 6-Fluoro-N-(1-((2S,3R,4R,5R)-3-fluoro-4-hydroxy-5-(hydroxymethyl)tetrahydrofuran-2-yl)-2-oxo-1,2-dihydropyrimidin-4-yl)nicotinamide]
[5]
  Selectivity index FluB Lee: >5.5
  EC50: 18.3 µM
[6]
  CC50 at 3 days: > 100 µM

## NC12CC3CC(CC(C3)C1)C2 [AMT, amantadine hydrochloride, reference compound]
[5]
  EC50: > 100 µM
[6]
  CC50: > 100 µM

## Cc1cccnc1C(=O)Nc1ccn([C@@H]2O[C@H](CO)[C@@H](O)C2(F)F)c(=O)n1 [Example 12, N-(1-((2R,4R,5R)-3,3-difluoro-4-hydroxy-5-(hydroxymethyl)tetrahydrofuran-2-yl)-2-oxo-1,2-dihydropyrimidin-4-yl)-3-methylpicolinamide]
[1]
  CC50 at 3 days: > 100 µM
[5]
  Selectivity index FluB Lee: >2.0
  EC50: 49.1 µM
[2]
  EC50: 6.16 µM
[6]
  CC50 at 3 days: > 100 µM
[7]
  EC50: 12.2 µM
[8]
  CC50: > 100 µM

## Cc1cccc(C(=O)Nc2ccn([C@@H]3O[C@H](CO)[C@@H](O)C3(F)F)c(=O)n2)n1 [Example 13, N-(1-((2R,4R,5R)-3,3-difluoro-4-hydroxy-5-(hydroxymethyl)tetrahydrofuran-2-yl)-2-oxo-1,2-dihydropyrimidin-4-yl)-6-methylpicolinamide]
[1]
  CC50 at 3 days: > 100 µM
[5]
  Selectivity index FluB Lee: >12.8
  EC50: 7.8 µM
[2]
  EC50: 1.98 µM
[6]
  CC50 at 3 days: > 100 µM
[7]
  EC50: 5.8 µM
[8]
  CC50: > 100 µM

## O=C(Nc1ccn([C@@H]2O[C@H](CO)[C@@H](O)C2(F)F)c(=O)n1)c1ccc(C(F)(F)F)nc1 [Example 14, N-(1-((2R,4R,5R)-3,3-difluoro-4-hydroxy-5-(hydroxymethyl)tetrahydrofuran-2-yl)-2-oxo-1,2-dihydropyrimidin-4-yl)-6-(trifluoromethyl)nicotinamide]
[5]
  Selectivity index FluB Lee: >32.3
  EC50: 3.1 µM
[6]
  CC50 at 3 days: > 100 µM

## Cn1cc(C(=O)Nc2ccn([C@@H]3O[C@H](CO)[C@@H](O)C3(F)F)c(=O)n2)cn1 [Example 15, N-(1-((2R,4R,5R)-3,3-difluoro-4-hydroxy-5-(hydroxymethyl)tetrahydrofuran-2-yl)-2-oxo-1,2-dihydropyrimidin-4-yl)-1-methyl-1H-pyrazole-4-carboxamide]
[5]
  Selectivity index FluB Lee: 12.5
  EC50: 8 µM
[6]
  CC50 at 3 days: > 100 µM

## O=C(Nc1ccn([C@@H]2O[C@H](CO)[C@@H](O)C2(F)F)c(=O)n1)c1cccc(-c2ccccc2)n1 [Example 17, N-(1-((2R,4R,5R)-3,3-difluoro-4-hydroxy-5-(hydroxymethyl)tetrahydrofuran-2-yl)-2-oxo-1,2-dihydropyrimidin-4-yl)-6-phenylpicolinamide]
[1]
  CC50 at 3 days: 58.9 µM
[5]
  Selectivity index FluB Lee: >41.7
  EC50: 2.4 µM
[2]
  EC50: < 1.2 µM
[6]
  CC50 at 3 days: > 100 µM

## O=C(Nc1ccn([C@@H]2O[C@H](CO)[C@@H](O)C2(F)F)c(=O)n1)c1ccc([N+](=O)[O-])cn1 [Example 19, N-(1-((2R,4R,5R)-3,3-difluoro-4-hydroxy-5-(hydroxymethyl)tetrahydrofuran-2-yl)-2-oxo-1,2-dihydropyrimidin-4-yl)-5-nitropicolinamide]
[1]
  CC50 at 3 days: < 1.2 µM
[5]
  Selectivity index FluB Lee: >83.3
  EC50: < 1.2 µM
[2]
  EC50: < 1.2 µM
[6]
  CC50 at 3 days: > 100 µM

## Cl.Nc1ccc(C(=O)Nc2ccn([C@@H]3O[C@H](CO)[C@@H](O)C3(F)F)c(=O)n2)nc1 [Example 20, 5-amino-N-(1-((2R,4R,5R)-3,3-difluoro-4-hydroxy-5-(hydroxymethyl)tetrahydrofuran-2-yl)-2-oxo-1,2-dihydropyrimidin-4-yl)picolinamide-hydrochloride]
[1]
  CC50 at 3 days: 75.9 µM
[5]
  Selectivity index FluB Lee: >5.1
  EC50: 19.5 µM
[2]
  EC50: 1.6 µM
[6]
  CC50: > 100 µM

## COc1ccc(C(=O)Nc2ccn([C@@H]3O[C@H](CO)[C@@H](O)C3(F)F)c(=O)n2)nc1 [Example 21, N-(1-((2R,4R,5R)-3,3-difluoro-4-hydroxy-5-(hydroxymethyl)tetrahydrofuran-2-yl)-2-oxo-1,2-dihydropyrimidin-4-yl)-5-methoxypicolinamide]
[1]
  CC50 at 3 days: > 100 µM
[5]
  Selectivity index FluB Lee: >4.5
  EC50: 22.3 µM
[2]
  EC50: 1.3 µM
[6]
  CC50 at 3 days: > 100 µM

## COc1ccc(C(=O)Nc2ccn([C@@H]3O[C@H](CO)[C@@H](O)C3(F)F)c(=O)n2)cn1 [Example 22, N-(1-((2R,4R,5R)-3,3-difluoro-4-hydroxy-5-(hydroxymethyl)tetrahydrofuran-2-yl)-2-oxo-1,2-dihydropyrimidin-4-yl)-6-methoxynicotinamide]
[1]
  CC50 at 3 days: < 1.2 µM
[5]
  Selectivity index FluB Lee: >4.1
  EC50: 24.4 µM
[2]
  EC50: < 1.2 µM
[6]
  CC50 at 3 days: > 100 µM

## O=C(Nc1ccn([C@@H]2O[C@H](CO)[C@@H](O)C2(F)F)c(=O)n1)c1ccc(Cl)nc1 [Example 23, 6-Chloro-N-(1-((2R,4R,5R)-3,3-difluoro-4-hydroxy-5-(hydroxymethyl)tetrahydrofuran-2-yl)-2-oxo-1,2-dihydropyrimidin-4-yl)nicotinamide]
[1]
  CC50 at 3 days: < 1.2 µM
[5]
  Selectivity index FluB Lee: >16.1
  EC50: 6.2 µM
[2]
  EC50: < 1.2 µM
[6]
  CC50 at 3 days: > 100 µM

## Cc1nccc(C(=O)Nc2ccn([C@@H]3O[C@H](CO)[C@@H](O)C3(F)F)c(=O)n2)n1 [Example 24, N-(1-((2R,4R,5R)-3,3-difluoro-4-hydroxy-5-(hydroxymethyl)tetrahydrofuran-2-yl)-2-oxo-1,2-dihydropyrimidin-4-yl)-2-methylpyrimidin-4-carboxamide]
[1]
  CC50 at 3 days: 55.4 µM
[5]
  Selectivity index FluB Lee: >83
  EC50: < 1.2 µM
[2]
  EC50: < 1.2 µM
[6]
  CC50 at 3 days: > 100 µM

## O=C(Nc1ccn([C@@H]2O[C@H](CO)[C@@H](O)C2(F)F)c(=O)n1)c1ccc(-c2ccccc2)cn1 [Example 25, N-(1-((2R,4R,5R)-3,3-difluoro-4-hydroxy-5-(hydroxymethyl)tetrahydrofuran-2-yl)-2-oxo-1,2-dihydropyrimidin-4-yl)-5-phenylpicolinamide]
[1]
  CC50 at 3 days: 29.5 µM
[5]
  Selectivity index FluB Lee: >16.4
  EC50: 6.1 µM
[2]
  EC50: < 1.2 µM
[6]
  CC50 at 3 days: > 100 µM

## CCC(CC)O[C@@H]1C=C(C(=O)O)C[C@H](N)[C@H]1NC(C)=O [OSV-C, oseltamivir carboxylate, reference compound]
[5]
  EC50: 1.46 µM

## NC(=O)c1ncn([C@@H]2O[C@H](CO)[C@@H](O)[C@H]2O)n1 [RBV, ribavirin, reference compound]
[5]
  EC50: 40.6 µM
